This note sets out measurements from ChEMBL document CHEMBL1157539, “Thousands of chemical starting points for antimalarial lead identification” (Nature, 2010).

This assay has as its system Plasmodium falciparum. Briefly: GSK_TCMDC: Inhibition of Plasmodium falciparum 3D7 in whole erythrocytes, using parasite LDH activity as an index of growth. The assay is classed as functional, organism-based. Conditions: Plasmodium falciparum, 3D7.
For `CN(C)c1nc(NCc2ccccc2)nc(N/N=C/c2cc([N+](=O)[O-])ccc2O)n1`, the XC50 is 0.685 µM.

`Cc1cc(C)c2ncc(C(=O)O)c(O)c2c1` yielded an XC50 of 0.878 µM.

`O=C(NC1CCN(Cc2ccccc2)CC1)c1ccc2c(=O)n(Cc3ccc(Cl)cc3)c(=S)[nH]c2c1` came in with an XC50 of 0.998 µM.

Consider `Oc1nc(Cc2ccccc2)nc2ccc(Cl)cc12`, for which the XC50 is 0.879 µM.

With `CC1CCC2(CC1)N=C(N)N=C(N)N2OCc1ccc(Br)c2ccccc12` (configuration not stated), the XC50 stood at 0.216 µM.

`CNC(=O)C1Cc2c([nH]c3cc(Br)ccc23)C2(CCN(CCc3ccccc3)CC2)N1` (configuration not stated) had an XC50 of 0.721 µM.

The compound `COc1c(CNCCCCCCNCc2c(OC)c(OC)c3ccccc3c2OC)c(OC)c2ccccc2c1OC` displayed an XC50 of 0.956 µM.

In turn, `O=C(NCc1ccc(F)cc1)Nc1ccc(-c2cccc(-c3nc4cc(C(F)(F)F)ccc4[nH]3)c2)cc1` gave an XC50 of 0.946 µM.

The compound `Cn1nc(-c2cccc(CN[C@@H]3CCc4ccc(O)cc43)c2)c2cnc(NC3CCCC3)nc21` gave an XC50 of 0.736 µM.

Regarding `Cc1cc(Br)c(OCCCON2C(=N)N=C(N)NC2(C)C)c(Br)c1`, the XC50 was 0.0032 µM.

With `N=C(Cc1ccc(Cl)cc1)NCCN1CCCCCC1`, the XC50 was 0.742 µM.

Compound `CC1CN(Cc2ccc(-c3ccc(-c4nc5ccccc5[nH]4)cc3)cc2)CC(C)O1` (configuration not stated) gave an XC50 of 0.523 µM.

Compound `c1ccc(C2CCN(Cc3ccc(-c4c[nH]c5nc(NC6CCCC6)ncc45)cc3)CC2)cc1` gave an XC50 of 1.01 µM.

The compound `COc1ccc(-c2c(C(F)(F)F)nn(C)c2NC(=O)Nc2ccc(F)cc2F)cc1` displayed an XC50 of 0.797 µM.

The compound `Cc1cc(=NN=Cc2ccccc2)c2cc(C(F)(F)F)ccc2[nH]1` returned an XC50 of 0.153 µM.

In the case of `C=CCOC(=O)N1CCC(CNCc2ccc(-c3ccc(-c4nc5cc(C(F)(F)F)ccc5[nH]4)cc3)cc2)C1` (configuration not stated), the XC50 was 0.15 µM.

Compound `CC(C)(C)c1ccc(CNC(=O)c2cc(CNC3CCC(N)CC3)ccc2O)cc1` (configuration not stated) came in with an XC50 of 1.03 µM.

`Cc1cc(C2CCN(CCCCNC(=O)c3ccc(NC(=O)c4ccc(Cl)cc4)cc3)CC2)c(C)cc1OC(C)C` displayed an XC50 of 0.744 µM.

For the compound `COc1c(CN2CCCC2)cccc1-c1cc2c(-c3ccc(C(=O)O)c(C(C)C)c3)ccnc2[nH]1`, the XC50 stood at 0.439 µM.

On to `COc1ccc(N2CCN(CCCCNC(=O)c3ccc(NC(=O)c4ccc(OC(F)(F)F)cc4)cc3)CC2)c(OC)c1`, for which the XC50 came to 0.578 µM.

As for `NOCCCOc1ccc(Cl)cc1`, the XC50 was 0.574 µM.

Take `Cc1ccc(CN2CCCCC(NC(=O)c3cc4ccccc4s3)C2)cc1` (configuration not stated): the XC50 is 0.9 µM.

As to `O=C(c1cccs1)N1CCN(c2ccc([N+](=O)[O-])c(NC3CC3)c2)CC1`, the XC50 is 0.767 µM.

Regarding `Cc1ccccc1N1CCN(c2ncc(C(=O)NC3CC3)cc2Cl)CC1`, the XC50 was 0.628 µM.

`COc1ccc2nccc([C@@H](O)CN3CCC(NCCOc4ccncc4)CC3)c2c1` displayed an XC50 of 0.691 µM.

`CCCc1cc(Cc2cnc(N)nc2N)cc(CCC)c1OC` yielded an XC50 of 0.893 µM.

`O=S(=O)(NCCN1CCCC1)c1cccc(-c2ccc(CNCc3ccc(F)cc3)cc2)c1` came in with an XC50 of 0.234 µM.

`Cc1nnsc1C(=O)Nc1ccc(-c2ccc(-c3nc4cccc(C)c4[nH]3)s2)cc1`: the XC50 worked out at 0.594 µM.

Compound `O=C(NC1CCC1)C1CCN(C(c2ccc(Cl)cc2)c2ccc(Cl)cc2)CC1` had an XC50 of 0.562 µM.

In turn, `CC(C)N1CCCN(C(=O)C2CCN(c3ccc(C(=O)N4CCCC4)cn3)CC2)CC1` registered an XC50 of 1.06 µM.

In turn, `Cc1ccc(C)c2sc(N3CCN(C(=O)c4ccc([N+](=O)[O-])o4)CC3)nc12` had an XC50 of 0.819 µM.

Regarding `ON=C1c2cc(OCCN3CCCCC3)c(Cl)cc2-c2cc(Cl)c(OCCN3CCCCC3)cc21`, the XC50 was 0.703 µM.

With `Cc1cccc2nc(-c3cccc(-c4cccc(NC(=O)Nc5ccc(Cl)c(Cl)c5)c4)c3)[nH]c12`, the XC50 came to 0.375 µM.

`CCC(=O)N[C@@H]1CN[C@@H](C#Cc2cc3c(Nc4ccc(OCc5cccc(F)c5)c(Cl)c4)ncnc3s2)C1` came in with an XC50 of 1.12 µM.

For the compound `COc1ccc(-c2nc3c(N)nc(N)nc3nc2-c2ccccc2Cl)cc1.COc1ccc(-c2nc3nc(N)nc(N)c3nc2-c2ccccc2Cl)cc1`, the XC50 was determined as 0.549 µM.

`CN(C)CCNc1nccc(N2CCc3ncnc(Nc4ccc(OCc5cccc(F)c5)c(Cl)c4)c3C2)n1`: the XC50 was 0.138 µM.

For the compound `Cc1cccc2nc(-c3ccc(-c4cccc(CNCc5cccc(N)c5)c4)s3)[nH]c12`, the XC50 was 0.517 µM.

With `Cc1cc(-c2ccc(CNCCc3cccs3)cc2)ccc1S(=O)(=O)NCc1ccccc1`, the XC50 was found to be 1.14 µM.

Turning to `CCCCc1cc(NCc2ccncc2)nc(Nc2ccc(C)cc2)n1`, the XC50 turned out to be 0.794 µM.

Take `COc1cc2c(Nc3ccc(Br)cc3F)ncnc2cc1OCC1CCN(C)CC1`: the XC50 was 0.77 µM.

With `Cc1cccc2nc(-c3ccc(-c4ccc(CNCC5CCCO5)cc4)s3)[nH]c12` (configuration not stated), the XC50 was 0.739 µM.

As for `NC1=NC2(CCCCC2)N(Cc2ccc(Cl)c(Cl)c2)C(N)=N1`, the XC50 was 0.623 µM.

For the compound `O=C(NC(CCCN1CCC(c2ccccc2)CC1)c1ccc(Cl)c(Cl)c1)c1cc(C(F)(F)F)cc(C(F)(F)F)c1` (configuration not stated), the XC50 came out at 0.865 µM.

As to `CN(c1ccccc1)c1ccnc(NC(=N)Nc2ccc(Cl)cc2)n1`, the XC50 was determined as 1.09 µM.

Turning to `COc1ccc(CC(C)NCC(O)c2cccc(C(F)(F)F)c2)cc1` (configuration not stated), the XC50 was determined as 1.58 µM.

For the compound `CCCN(Cc1nnc(-c2cccs2)o1)C(=O)CSc1nnnn1-c1ccc(C)c(C)c1`, the XC50 is 0.582 µM.

Compound `Cn1ccc(-c2cccc(Nc3ccnc4cc(-c5nccs5)ccc34)c2)n1` returned an XC50 of 0.405 µM.

For the compound `CCNc1cc(C(=O)N[C@@H](Cc2ccccc2)[C@H](O)CNCc2cc(OC)cc(OC)c2)cc(N2CCCS2(=O)=O)c1`, the XC50 is 0.043 µM.

Compound `CCCCOc1cc2c(cc1OCC)C(C=Cc1ccc(Cl)cc1Cl)=NCC2` showed an XC50 of 0.403 µM.

Consider `c1ccc2[nH]c(-c3ccc(-c4ccc(CNC5CC5)cc4)s3)nc2c1`, for which the XC50 stood at 1.05 µM.

The compound `Cc1cc(N[C@@H](CC(C)C)C(=O)NCCOc2ccccc2)nc(NCC2CCCCC2)n1` showed an XC50 of 0.972 µM.

Take `COCCn1c(Sc2ccc(C#N)c([N+](=O)[O-])c2)nnc1-c1ccc(N(C)C)cc1`: the XC50 came to 1.03 µM.

Turning to `COc1ccc2nccc([C@@H](O)CN3CCC(c4cc(-c5ccc(Cl)cc5)[nH]n4)CC3)c2n1`, the XC50 is 0.737 µM.

For the compound `COc1ccc(-c2cccc(NC(=O)c3cccc(Cl)c3)c2)cc1CN1CCCN(C)CC1`, the XC50 is 0.231 µM.

`COc1cccc(-c2ccc(C(=O)NC3CCN(Cc4ccc(N(C)C)cc4)CC3)s2)c1`: the XC50 was 1.39 µM.

For `Clc1cc(Cl)c2cc(CNCCCNc3ccc4ccccc4n3)[nH]c2c1`, the XC50 is 0.339 µM.

In the case of `O=C(Nc1ccc(CCNC2=NCCN2)cc1)Nc1ccc(CCNC2=NCCN2)cc1`, the XC50 is 0.789 µM.

`O=C(/C=C/c1c(Cl)cccc1Cl)NC1CCC(CN2CCC(c3c[nH]c4ccncc34)CC2)CC1` (configuration not stated): the XC50 is 0.158 µM.

For `CN(C)C(=O)c1ccc(CN(Cc2ccc(OC(C)(C)C)cc2)Cc2ccc3c(c2)OCCO3)cc1`, the XC50 came out at 0.829 µM.

As for `CNc1ccc(CNCc2ccc(-c3ccc(-c4nc5cccc(C)c5[nH]4)cc3)cc2)cc1`, the XC50 was found to be 0.319 µM.

With `COc1ccc(-c2cnc3[nH]cc(-c4ccc(CCC(=O)O)cc4)c3c2)cn1`, the XC50 worked out at 0.773 µM.

For `C=C[C@H]1CN2CC[C@H]1C[C@H]2[C@H](O)c1cc(-c2ccc(Cl)cc2)nc2ccc(OC)cc12`, the XC50 was 0.0303 µM.

Compound `COc1ccc(Cl)cc1C(=O)Nc1ccc(-c2nc3ccccc3[nH]2)cc1` gave an XC50 of 0.774 µM.

Consider `Clc1cc(Nc2ncnc3sc(C#C[C@H]4CCCN4)cc23)ccc1OCc1cccnc1Cl`, for which the XC50 was determined as 0.569 µM.

In turn, `Cc1cccc2nc(-c3cccc(-c4ccc(NC(=O)C(C)CN5CCOCC5)cc4)c3)[nH]c12` (configuration not stated) gave an XC50 of 0.689 µM.

As for `O=C(/C=C/c1ccsc1)NC1CCC(CN2CCC(c3c[nH]c4ccccc34)CC2)CC1` (configuration not stated), the XC50 is 1.12 µM.

`Cc1[nH]c(C)c(-c2ccc(-c3cccc(C(F)(F)F)c3)nc2)c(=O)c1Br` registered an XC50 of 0.14 µM.

`COc1cc2c(cc1OC)CC(NCc1ccc(-c3ccc4nc[nH]c4c3)cc1)C2` showed an XC50 of 0.846 µM.

In turn, `COc1ccc(CC(C)NCC(O)c2cccc(Br)c2)cc1` (configuration not stated) had an XC50 of 0.961 µM.

Consider `CN(C)CCN(C)C(=O)c1cc(-c2ccncc2)c(-c2ccc(Cl)c(O)c2)o1`, for which the XC50 is 1.05 µM.

The compound `CCOCCCn1c(=N)c(C(=O)NCc2ccc(F)cc2)cc2c(=O)n3cccc(C)c3nc21` gave an XC50 of 0.526 µM.

In turn, `Nc1nc(Nc2cccc(O)c2)nc2ccccc12` yielded an XC50 of 0.791 µM.

Turning to `Cc1cccc(C(O)CNc2ccnc(Nc3cccc(-c4csc(C)n4)c3)n2)c1` (configuration not stated), the XC50 is 0.675 µM.

Turning to `Cc1cc(N[C@@H](Cc2ccccc2)C(=O)Nc2ccccc2)nc(NCCc2ccccn2)n1`, the XC50 is 0.874 µM.

Compound `CC(=O)Nc1ccc(Nc2cc(C)nc(Nc3ccc(NC(C)=O)cc3)n2)cc1` registered an XC50 of 0.894 µM.

Compound `COc1cccc(C(=O)C2CC2CN2CC=C(c3c[nH]c4ccc(OC)nc34)CC2)c1` (configuration not stated) had an XC50 of 0.526 µM.

For `CC(CN(C)C)C(=O)Nc1ccc(-c2ccc(-c3nc4cc(C(F)(F)F)ccc4[nH]3)cc2)cc1` (configuration not stated), the XC50 is 0.747 µM.

For the compound `CC(CN(C)C)C(=O)Nc1cccc(-c2ccc(-c3nc4cc(F)ccc4[nH]3)s2)c1` (configuration not stated), the XC50 amounted to 0.801 µM.

`CC12CCC(=O)N1C(C(=O)Nc1cccc(C(=O)Nc3cccc(C(F)(F)F)c3)c1)CS2` (configuration not stated): the XC50 turned out to be 0.358 µM.

The compound `Cc1ccccc1C1CCN(C2CCC(NC(=O)/C=C/c3cccc(Cl)c3Cl)CC2)CC1` (configuration not stated) gave an XC50 of 1.03 µM.

The compound `Cc1cc2nc(-c3cc(-c4cccc(NS(C)(=O)=O)c4)cnc3N)[nH]c2cc1C` registered an XC50 of 0.672 µM.

The compound `COc1ccccc1COc1c(C)nc(N)nc1N` showed an XC50 of 0.706 µM.

Regarding `COc1ccc(C2CCN(CCCNC(=O)c3ccc(NC(=O)c4ccc(Cl)cc4)cc3)CC2)c(OC)c1`, the XC50 came to 0.763 µM.

Turning to `Cc1ccccc1C1CCN(C2CCC(NC(=O)/C=C/c3cccc(Cl)c3)CC2)CC1` (configuration not stated), the XC50 was determined as 0.891 µM.

The compound `Cc1cc2c(cc1C(F)(F)F)N(C(=O)Nc1ccc(OCCN(C)C)c(C(F)(F)F)c1)CC2` yielded an XC50 of 0.905 µM.

`COc1nc2c(CCN3CC[C@@H](NCc4cc(C#N)c5c(c4)CCO5)[C@@H](O)C3)ccnc2cc1F` gave an XC50 of 1.03 µM.

Compound `CCc1c(CCNCCCCCCNCCc2ccccc2)ccc(OC)c1OC` showed an XC50 of 0.8 µM.
